Experiment [1] addresses T1, Maltase-glucoamylase (Homo sapiens, UniProt O43451). Briefly: Inhibition of alpha-glucosidase (unknown origin) by HPLC analysis.
Experiment [2] deals with T1, Maltase-glucoamylase. Briefly: Inhibition of alpha-glucosidase (unknown origin).

Drawing on BindingDB's records for PubMed 32711292 (n/a, 2020), this text covers IC50 for five compounds.

In general, IC50 refers to the concentration that inhibits the measured activity by half.

T1 sequence (O43451 whole entry): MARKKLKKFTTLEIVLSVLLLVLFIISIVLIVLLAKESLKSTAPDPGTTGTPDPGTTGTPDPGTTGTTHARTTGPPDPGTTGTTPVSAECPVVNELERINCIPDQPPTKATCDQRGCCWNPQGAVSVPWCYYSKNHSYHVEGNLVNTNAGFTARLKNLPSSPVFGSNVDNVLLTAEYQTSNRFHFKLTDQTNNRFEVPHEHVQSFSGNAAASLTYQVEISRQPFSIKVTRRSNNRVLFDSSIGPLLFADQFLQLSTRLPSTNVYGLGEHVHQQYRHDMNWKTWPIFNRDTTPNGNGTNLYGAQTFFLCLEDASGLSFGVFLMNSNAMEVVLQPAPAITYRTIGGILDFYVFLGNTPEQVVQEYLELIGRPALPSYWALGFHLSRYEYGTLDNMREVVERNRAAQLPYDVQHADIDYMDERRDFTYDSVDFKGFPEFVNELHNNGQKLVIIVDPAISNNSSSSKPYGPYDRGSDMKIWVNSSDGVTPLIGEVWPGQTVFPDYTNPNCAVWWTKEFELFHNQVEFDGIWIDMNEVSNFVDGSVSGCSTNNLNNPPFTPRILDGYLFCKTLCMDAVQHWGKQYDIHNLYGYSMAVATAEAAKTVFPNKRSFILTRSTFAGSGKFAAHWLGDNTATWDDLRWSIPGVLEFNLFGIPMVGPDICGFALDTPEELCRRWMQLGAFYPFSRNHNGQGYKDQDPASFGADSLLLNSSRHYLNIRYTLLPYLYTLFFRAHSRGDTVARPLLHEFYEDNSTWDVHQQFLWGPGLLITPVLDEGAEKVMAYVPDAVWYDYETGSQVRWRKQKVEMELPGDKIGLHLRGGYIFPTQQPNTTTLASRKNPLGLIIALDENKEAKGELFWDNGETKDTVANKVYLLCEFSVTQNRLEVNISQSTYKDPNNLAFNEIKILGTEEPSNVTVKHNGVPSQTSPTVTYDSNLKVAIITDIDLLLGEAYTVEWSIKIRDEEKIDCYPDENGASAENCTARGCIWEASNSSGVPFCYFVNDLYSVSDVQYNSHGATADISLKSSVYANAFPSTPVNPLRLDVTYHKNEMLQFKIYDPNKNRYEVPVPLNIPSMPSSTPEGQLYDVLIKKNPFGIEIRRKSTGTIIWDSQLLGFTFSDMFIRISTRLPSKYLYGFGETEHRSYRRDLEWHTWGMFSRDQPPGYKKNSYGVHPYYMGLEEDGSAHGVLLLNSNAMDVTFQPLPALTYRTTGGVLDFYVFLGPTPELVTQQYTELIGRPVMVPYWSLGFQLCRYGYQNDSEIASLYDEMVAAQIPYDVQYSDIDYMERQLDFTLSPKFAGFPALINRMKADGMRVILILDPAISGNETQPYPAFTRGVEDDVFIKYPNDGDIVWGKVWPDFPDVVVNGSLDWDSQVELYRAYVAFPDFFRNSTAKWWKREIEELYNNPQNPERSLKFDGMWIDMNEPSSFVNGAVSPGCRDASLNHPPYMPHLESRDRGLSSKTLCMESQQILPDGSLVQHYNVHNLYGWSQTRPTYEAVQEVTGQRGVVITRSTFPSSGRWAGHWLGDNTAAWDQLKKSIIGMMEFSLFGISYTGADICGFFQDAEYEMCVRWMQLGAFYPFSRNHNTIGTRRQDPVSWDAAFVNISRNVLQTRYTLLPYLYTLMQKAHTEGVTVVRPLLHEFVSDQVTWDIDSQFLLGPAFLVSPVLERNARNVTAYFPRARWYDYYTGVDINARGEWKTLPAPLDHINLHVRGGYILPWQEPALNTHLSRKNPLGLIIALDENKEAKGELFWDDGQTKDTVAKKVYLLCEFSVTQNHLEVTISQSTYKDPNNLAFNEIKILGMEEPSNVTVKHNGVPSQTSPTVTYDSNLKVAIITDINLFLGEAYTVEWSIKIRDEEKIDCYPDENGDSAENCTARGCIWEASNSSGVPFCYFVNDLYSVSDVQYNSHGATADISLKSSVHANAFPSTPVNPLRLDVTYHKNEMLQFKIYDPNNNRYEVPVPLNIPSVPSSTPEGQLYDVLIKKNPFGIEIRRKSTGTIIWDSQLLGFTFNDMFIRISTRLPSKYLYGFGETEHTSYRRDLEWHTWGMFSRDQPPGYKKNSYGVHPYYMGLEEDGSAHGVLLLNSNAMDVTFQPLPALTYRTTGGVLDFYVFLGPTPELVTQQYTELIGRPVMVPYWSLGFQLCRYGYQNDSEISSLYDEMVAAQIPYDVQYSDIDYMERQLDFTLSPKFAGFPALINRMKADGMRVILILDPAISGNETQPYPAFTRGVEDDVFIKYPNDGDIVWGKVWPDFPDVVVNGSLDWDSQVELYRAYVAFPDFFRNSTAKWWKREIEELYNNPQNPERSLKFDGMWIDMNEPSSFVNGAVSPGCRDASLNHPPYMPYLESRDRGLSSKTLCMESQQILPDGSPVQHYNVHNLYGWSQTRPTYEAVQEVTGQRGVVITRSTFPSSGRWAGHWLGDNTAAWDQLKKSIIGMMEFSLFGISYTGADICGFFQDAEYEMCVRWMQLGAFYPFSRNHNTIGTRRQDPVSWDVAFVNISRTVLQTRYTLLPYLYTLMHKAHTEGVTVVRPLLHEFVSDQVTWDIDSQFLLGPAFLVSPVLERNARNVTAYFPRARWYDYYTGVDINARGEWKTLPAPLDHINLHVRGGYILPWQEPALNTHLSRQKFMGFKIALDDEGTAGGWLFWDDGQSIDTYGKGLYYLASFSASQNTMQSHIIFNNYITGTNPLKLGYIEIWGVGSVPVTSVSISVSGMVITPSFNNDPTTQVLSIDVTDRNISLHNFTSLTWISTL

Compound `COc1ccc(CCc2cc(O)c(O)c(OC)c2)cc1` yielded a half-maximal inhibitory concentration (IC50) on Maltase-glucoamylase [1] of 200 µM.

As for `COc1cc([C@@H]2Oc3cc(CCc4ccc(O)cc4)cc(OC)c3O[C@H]2CO)cc(OC)c1O`, the half-maximal inhibitory concentration (IC50) at Maltase-glucoamylase [1] was determined as 9460 µM.

Regarding `COc1cc(CCc2cccc(O)c2)cc(O)c1O`, on Maltase-glucoamylase [1], half-maximal inhibition (IC50) was put at 214 µM.

In turn, `COc1cc(O)cc(CCc2cccc(O)c2)c1` [Batatasin III (4)] returned an IC50 against Maltase-glucoamylase [2] of 149 µM.

In the case of `COc1cc(O)cc(CCc2ccc(O)c(OC)c2)c1` [GIGANTOL], the IC50 on Maltase-glucoamylase [2] amounted to 103 µM.
